Reference: patent publication US20240398828A1, “HETERO-ATOM CONTAINING COMPOUNDS AND USES THEREOF” (Kumquat Biosciences Inc., priority 2021, published 2024)

What was measured:
[1] = biological target: T1, PTPN2 (i.e., TC-PTP) (Homo sapiens, UniProt P17706); experiment: Phosphatase activity assay (DiFMUP substrate), PTPN2; type: biochemical; conditions: compounds binned ≤1 uM or >1 uM
T1 sequence (P17706 1-415): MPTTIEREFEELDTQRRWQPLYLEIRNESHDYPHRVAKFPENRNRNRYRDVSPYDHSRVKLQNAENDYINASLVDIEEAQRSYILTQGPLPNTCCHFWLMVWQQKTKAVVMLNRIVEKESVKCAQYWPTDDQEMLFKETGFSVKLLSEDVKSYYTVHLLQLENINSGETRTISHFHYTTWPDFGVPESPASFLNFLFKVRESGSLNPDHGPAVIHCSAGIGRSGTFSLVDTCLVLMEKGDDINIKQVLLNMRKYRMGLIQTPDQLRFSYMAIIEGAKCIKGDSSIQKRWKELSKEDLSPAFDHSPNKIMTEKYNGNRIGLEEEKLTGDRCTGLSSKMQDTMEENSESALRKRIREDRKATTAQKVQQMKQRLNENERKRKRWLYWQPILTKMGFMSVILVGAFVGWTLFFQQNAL
Summary of the method: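 Enzyme (e.g. PTPN2 0.025 ng/ul) mixed about 2 min with compound at 10 serial concentrations in 50 mM HEPES pH 7.5, 150 mM NaCl, 0.5 mM EDTA, 1 mM DTT, 0.001% Tween-20 at room temperature. DiFMUP added at each enzyme's Km (about 45 μM for PTPN2). DiFMU fluorescence (ex 360/em 450 nm) followed 15-30 min; IC50 from 4-parameter fit of rates.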

[2] = biological target: T2, PTPN1 (i.e., PTP1B) (Homo sapiens, UniProt P18031); experiment: Phosphatase activity assay (DiFMUP substrate), PTP1B; type: biochemical; conditions: compounds binned ≤1 uM or >1 uM
T2 sequence (P18031 1-435): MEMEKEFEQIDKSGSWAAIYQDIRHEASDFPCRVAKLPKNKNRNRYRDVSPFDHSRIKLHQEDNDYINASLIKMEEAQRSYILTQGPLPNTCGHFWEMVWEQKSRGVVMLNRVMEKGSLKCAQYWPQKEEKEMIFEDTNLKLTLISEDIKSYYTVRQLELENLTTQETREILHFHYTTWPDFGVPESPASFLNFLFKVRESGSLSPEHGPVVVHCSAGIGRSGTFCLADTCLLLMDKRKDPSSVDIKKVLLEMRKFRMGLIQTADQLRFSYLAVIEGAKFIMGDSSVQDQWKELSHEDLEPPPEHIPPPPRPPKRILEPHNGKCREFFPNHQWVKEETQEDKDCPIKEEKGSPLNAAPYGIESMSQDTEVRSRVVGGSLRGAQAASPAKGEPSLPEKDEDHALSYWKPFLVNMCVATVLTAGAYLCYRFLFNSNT
Summary of the method: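 Continuous fluorogenic readout of DiFMUP dephosphorylation at room temperature, substrate set at Km for each phosphatase (about 45 μM in the PTPN2 assay). The buffer contains 1 mM DTT and 0.001% Tween-20, pH 7.5.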

Row | IC50 [1] [µM] | IC50 [2] [µM] | Structure (SMILES)
1 | ≤ 1 | ≤ 1 | O=C1CN(c2c(O)ccc(-c3cnn(C4CCCC4)c3)c2F)S(=O)(=O)N1 [Compound 123, 5-(3-(1-cyclopentyl-1H-pyrazol-4-yl)-2-fluoro-6-hydroxyphenyl)-1,2,5-thiadiazolidin-3-one 1,1-dioxide]
2 | ≤ 1 | ≤ 1 | N#Cc1ccc(-n2cnc(-c3ccc(O)c(N4CC(=O)NS4(=O)=O)c3F)c2)cc1 [Compound 427, 4-(4-(3-(1,1-dioxido-4-oxo-1,2,5-thiadiazolidin-2-yl)-2-fluoro-4-hydroxyphenyl)-1H-imidazol-1-yl)benzonitrile]
3 | ≤ 1 | ≤ 1 | O=C1CN(c2c(O)ccc(-c3cc(CCC4CC4)n[nH]3)c2F)S(=O)(=O)N1 [Compound 452, 5-(3-(3-(2-cyclopropylethyl)-1H-pyrazol-5-yl)-2-fluoro-6-hydroxyphenyl)-1,2,5-thiadiazolidin-3-one 1,1-dioxide]
4 | ≤ 1 | ≤ 1 | O=C1CN(c2c(O)ccc(-c3cn[nH]c3)c2F)S(=O)(=O)N1 [Compound 477, 5-(2-fluoro-6-hydroxy-3-(1H-pyrazol-4-yl)phenyl)-1,2,5-thiadiazolidin-3-one 1,1-dioxide]
5 | ≤ 1 | ≤ 1 | NC(=O)C1(c2cc(-c3ccc(O)c(N4CC(=O)NS4(=O)=O)c3F)[nH]n2)CC1 [Compound 517, 1-(5-(3-(1,1-dioxido-4-oxo-1,2,5-thiadiazolidin-2-yl)-2-fluoro-4-hydroxyphenyl)-1H-pyrazol-3-yl)cyclopropane-1-carboxamide]
6 | ≤ 1 | ≤ 1 | Cn1ncc2cc(-c3ccc(O)c(N4CC(=O)NS4(=O)=O)c3F)cnc21 [Compound 156, 5-(2-fluoro-6-hydroxy-3-(1-methyl-1H-pyrazolo[3,4-b]pyridin-5-yl)phenyl)-1,2,5-thiadiazolidin-3-one 1,1-dioxide]
7 | ≤ 1 | ≤ 1 | N#CCn1cc(-c2ccc(O)c(N3CC(=O)NS3(=O)=O)c2F)cn1 [Compound 130, 2-(4-(3-(1,1-dioxido-4-oxo-1,2,5-thiadiazolidin-2-yl)-2-fluoro-4-hydroxyphenyl)-1H-pyrazol-1-yl)acetonitrile]
8 | ≤ 1 | ≤ 1 | O=C1CN(c2c(O)ccc(C3=CCN(C4CC4)C3)c2F)S(=O)(=O)N1 [Compound 296, 5-(3-(1-cyclopropyl-2,5-dihydro-1H-pyrrol-3-yl)-2-fluoro-6-hydroxyphenyl)-1,2,5-thiadiazolidin-3-one 1,1-dioxide]
9 | ≤ 1 | ≤ 1 | CC(C)S(=O)(=O)Nc1ccc(-c2ccc(O)c(N3CC(=O)NS3(=O)=O)c2F)cc1 [Compound 374, N-(3′-(1,1-dioxido-4-oxo-1,2,5-thiadiazolidin-2-yl)-2′-fluoro-4′-hydroxy-[1,1′-biphenyl]-4-yl)propane-2-sulfonamide]
10 | ≤ 1 | ≤ 1 | O=C1CN(c2c(O)ccc(-c3cnn(Cc4ccc(F)cc4)c3)c2F)S(=O)(=O)N1 [Compound 186, 5-(2-fluoro-3-(1-(4-fluorobenzyl)-1H-pyrazol-4-yl)-6-hydroxyphenyl)-1,2,5-thiadiazolidin-3-one 1,1-dioxide]
11 | ≤ 1 | ≤ 1 | CC(C)n1cc(-c2ccc(O)c(N3CC(=O)NS3(=O)=O)c2F)c(F)n1 [Compound 467, 5-(2-fluoro-3-(3-fluoro-1-isopropyl-1H-pyrazol-4-yl)-6-hydroxyphenyl)-1,2,5-thiadiazolidin-3-one 1,1-dioxide]
12 | ≤ 1 | ≤ 1 | CC(C)CCS(=O)(=O)N1CC=C(c2ccc(O)c(N3CC(=O)NS3(=O)=O)c2F)C1 [Compound 338, 5-(2-fluoro-6-hydroxy-3-(1-(isopentylsulfonyl)-2,5-dihydro-1H-pyrrol-3-yl)phenyl)-1,2,5-thiadiazolidin-3-one 1,1-dioxide]
13 | ≤ 1 | ≤ 1 | O=C1CN(c2c(O)ccc(C3=CCN(S(=O)(=O)C4CC4)C3)c2F)S(=O)(=O)N1 [Compound 238, 5-(3-(1-(cyclopropylsulfonyl)-2,5-dihydro-1H-pyrrol-3-yl)-2-fluoro-6-hydroxyphenyl)-1,2,5-thiadiazolidin-3-one 1,1-dioxide]
14 | ≤ 1 | ≤ 1 | O=C1CN(c2c(O)ccc(C3=CCN(CC(F)F)C3)c2F)S(=O)(=O)N1 [Compound 521, 5-(3-(1-(2,2-difluoroethyl)-2,5-dihydro-1H-pyrrol-3-yl)-2-fluoro-6-hydroxyphenyl)-1,2,5-thiadiazolidin-3-one 1,1-dioxide]
15 | ≤ 1 | ≤ 1 | COc1ccc(Cn2cc(-c3ccc(O)c(N4CC(=O)NS4(=O)=O)c3F)cn2)cc1 [Compound 172, 5-(2-fluoro-6-hydroxy-3-(1-(4-methoxybenzyl)-1H-pyrazol-4-yl)phenyl)-1,2,5-thiadiazolidin-3-one 1,1-dioxide]

More lines, now with the values behind:

Row | Structure (SMILES) | IC50 [1] [µM] | IC50 [2] [µM]
16 | Cc1c(C2CC2)n[nH]c1-c1ccc(O)c(N2CC(=O)NS2(=O)=O)c1F [Compound 254, 5-(3-(3-cyclopropyl-4-methyl-1H-pyrazol-5-yl)-2-fluoro-6-hydroxyphenyl)-1,2,5-thiadiazolidin-3-one 1,1-dioxide] | ≤ 1 | ≤ 1
17 | O=C1CN(c2c(O)ccc(-c3cc(C(=O)N4CCOCC4)n[nH]3)c2F)S(=O)(=O)N1 [Compound 336, 5-(2-fluoro-6-hydroxy-3-(3-(morpholine-4-carbonyl)-1H-pyrazol-5-yl)phenyl)-1,2,5-thiadiazolidin-3-one 1,1-dioxide] | ≤ 1 | ≤ 1
18 | O=C1CN(c2c(O)ccc(-c3ccc(=O)n(Cc4ccccc4)c3)c2F)S(=O)(=O)N1 [Compound 220, 5-(3-(1-benzyl-6-oxo-1,6-dihydropyridin-3-yl)-2-fluoro-6-hydroxyphenyl)-1,2,5-thiadiazolidin-3-one 1,1-dioxide] | ≤ 1 | ≤ 1
19 | O=C1CN(c2c(O)ccc(-n3cc(C4CC4)c(O)n3)c2F)S(=O)(=O)N1 [Compound 458, 5-(3-(4-cyclopropyl-3-hydroxy-1H-pyrazol-1-yl)-2-fluoro-6-hydroxyphenyl)-1,2,5-thiadiazolidin-3-one 1,1-dioxide] | ≤ 1 | ≤ 1
20 | O=C1CC(c2c(O)ccc(-c3cn(CC4CCCCC4)cn3)c2F)S(=O)(=O)N1 (stereo not shown) [Compound 419, 5-(3-(1-(cyclohexylmethyl)-1H-imidazol-4-yl)-2-fluoro-6-hydroxyphenyl)isothiazolidin-3-one 1,1-dioxide] | > 1 | > 1
21 | O=C1CN(c2c(O)ccc(-c3cnn(Cc4cccc(Cl)c4)c3)c2F)S(=O)(=O)N1 [Compound 223, 5-(3-(1-(3-chlorobenzyl)-1H-pyrazol-4-yl)-2-fluoro-6-hydroxyphenyl)-1,2,5-thiadiazolidin-3-one 1,1-dioxide] | ≤ 1 | ≤ 1
22 | O=C1CN(c2c(O)ccc(-c3ccc(NS(=O)(=O)C4CC4)cn3)c2F)S(=O)(=O)N1 [Compound 261, N-(6-(3-(1,1-dioxido-4-oxo-1,2,5-thiadiazolidin-2-yl)-2-fluoro-4-hydroxyphenyl)pyridin-3-yl)cyclopropanesulfonamide] | ≤ 1 | ≤ 1
23 | Cn1nc(-c2ccc(O)c(N3CC(=O)NS3(=O)=O)c2F)cc1C1CC1 [Compound 367, 5-(3-(5-cyclopropyl-1-methyl-1H-pyrazol-3-yl)-2-fluoro-6-hydroxyphenyl)-1,2,5-thiadiazolidin-3-one 1,1-dioxide] | ≤ 1 | ≤ 1
24 | O=C1CN(c2c(O)ccc(-c3cnn(CC(F)(F)F)c3)c2F)S(=O)(=O)N1 [Compound 366, 5-(2-fluoro-6-hydroxy-3-(1-(2,2,2-trifluoroethyl)-1H-pyrazol-4-yl)phenyl)-1,2,5-thiadiazolidin-3-one 1,1-dioxide] | ≤ 1 | ≤ 1
25 | CC(C)CCn1cc(-c2ccc(O)c(N3CC(=O)NS3(=O)=O)n2)cn1 [Compound 134, 5-(3-hydroxy-6-(1-isopentyl-1H-pyrazol-4-yl)pyridin-2-yl)-1,2,5-thiadiazolidin-3-one 1,1-dioxide] | > 1 | > 1
26 | Cc1cc(-c2ccc(O)c(N3CC(=O)NS3(=O)=O)c2F)n(C)n1 [Compound 284, 5-(3-(1,3-dimethyl-1H-pyrazol-5-yl)-2-fluoro-6-hydroxyphenyl)-1,2,5-thiadiazolidin-3-one 1,1-dioxide] | ≤ 1 | ≤ 1
